Assay results published in PMC5238392, “Origin of anti-tumor activity of the cysteine-containing GO peptides and further optimization of their cytotoxic properties” (Scientific Reports, 2017).
Read-outs that look alike come from different tables or passages of the source. Square brackets hold non-standard residues; d marks the D form. Peptide text beside a SMILES is read from it.

What was measured:
[1] = target: T1, reduced and denatured hen egg white lysozyme (Gallus gallus, UniProt P00698); experiment: Lysozyme oxidative refolding assay (disulfide oxidoreductase activity); assay type: biochemical; details: 1 mM peptide, pH 8.5, room temperature
T1 construct: Hen egg white lysozyme (Amresco, USA) was reduced/denatured and lyophilized; purchased Amresco, USA; host or cells: hen egg white
T1 sequence (P00698 19-147): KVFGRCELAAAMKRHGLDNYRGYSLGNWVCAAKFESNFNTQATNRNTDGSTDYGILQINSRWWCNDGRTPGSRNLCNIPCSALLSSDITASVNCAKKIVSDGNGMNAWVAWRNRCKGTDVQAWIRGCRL
Description: We have also conducted in vitro experiments to directly probe disulfide oxidoreductase properties of GO-202 peptide. For this purpose we have used the well-established lysozyme refolding assay. In brief, GO-202 is applied to the sample of reduced and denatured hen lysozyme. The protein then undergoes oxidative refolding, assisted by GO-202 which plays the role of disulfide oxidase (isomerase). After a certain interval of time (Tox) this process is quenched by adding an aliquot of acid and the sample is loaded on the reverse phase column.
Figure 10 Oxidative refolding of hen egg lysozyme as monitored by reverse-phase HPLC. […] Top panel (red traces) illustrate protein renaturation in the presence of GO-202; bottom panel (blue traces) represent control measurements with no peptide. The reaction time Tox ranging from 0 to 75 mins is listed on the left side of the individual chromatograms.
Hen egg white lysozyme (Amresco, USA) was reduced/denatured and lyophilized according to the protocol by van den Berg et al.[54]. It was then dissolved in buffer B1 (8 M urea, 100 mM Tris-HCl, 100 mM NaCl, 1 mM EDTA, pH 8.5) to obtain solution with 100 μM lysozyme concentration. Refolding was initiated by rapid dilution of 50 μL of this solution in 150 μL of buffer B2 (100 mM Tris-HCl, 100 mM NaCl, 1 mM EDTA, pH 8.5) containing the appropriate amount of redox agent (none for control experiment, 1.0 mM/0.2 mM GSH/GSSG for calibration experiment, 1 mM of GO-202 for disulfide oxidoreductase activity assay). The reactions were carried out at room temperature and quenched by addition of 10 μL of 2.5 M HCl to produce a pH of ca. 2. Buffers B1 and B2 were degassed prior to use by applying vacuum while stirred on magnetic stirrer for 30 min.
Reverse-phase chromatography data were obtained using Shimadzu Nexera HPLC with detection at 280 nm wavelength. The column used was Phenomenex Luna C-18 (5 μm particle size, 100 Å pore size, 150 mm length, 4.6 mm diameter); sample injection volume was 20 μL. HPLC solvent A was H2O/0.2% (v/v) trifluroacetic acid (TFA), solvent B was 90% CH3CN/10% H2O/0.2% TFA. Lysozyme was eluted using 30 min linear gradient from 35% to 45% of solvent B with a flow rate of 1 mL/min. Chromatograms from calibration GSH/GSSG experiments were in agreement with the previously reported data[54][63].

[2] = tested on: human endometrial mesenchymal stem cells (eMSC); experiment: MTS cell viability assay, eMSC; details: normal cells: eMSC; single dose, 96 h; Fig. 7E,F
Description: (§1) The data are according to the MTS assay, where the optical density was measured 96 h after the application of the peptide.
(§2) As a next step, we set out to test the cytotoxic effect of these peptides on the normal cells. In addition to the primary culture of dermal fibroblasts, which has been discussed above, we have also used human endometrial mesenchymal stem cells (eMSC).
(§3) Cell survival was measured using CellTiter 96 AQueous One Solution Cell Proliferation Assay (MTS test, Promega, USA). Cells have been seeded in a 96-well flat-bottom plate in 100 μl of culture medium (10^3 cells/well for A549, HT-1080, dermal fibroblasts and eMSC or 5 × 10^3 cells/well for ZR-75-1) and allowed to attach for 24 h. The starting amount of cells was chosen to account for their growth rate and degree of spreading such as to avoid excessive dilution in the beginning of the experiment or control cell overgrowth toward the end. After 24 h, 10 μl of peptide stock solution or PBS (control) were added to the wells. After 96 h, 20 μl of the MTS-reagent were added to each well and 1–2 h later optical density was measured at the wavelength 492 nm using the 96-well plate reader (Titertek Multiskan, Labsystems, Finland). All experiments were conducted in duplicate or triplicate.

[3] = tested on: human breast carcinoma cell line ZR-75-1; experiment: MTS cell viability assay, ZR-75-1; details: single dose
Description: (§4) As a next step, we used MTS assay[27] to examine the effect of GO peptides on the viability of the four described cell cultures as a function of different treatment schemes. […] This treatment regimen is labeled 4 × 5 underneath the graph. Alternatively, we introduced 5 μM of peptide daily while exchanging the medium (denoted 4/5). Unlike the previous protocol, it avoids potential build-up of the peptide in the medium.
(§5) The treatment protocols are: 4 × 5 – four daily doses of 5 μM delivered without exchanging the growth medium; 4/5 – four daily doses of 5 μM delivered with exchanged growth medium; 1 × 5, 1 × 10, 1 × 15, and 1 × 20 – a single dose of 5, 10, 15, or 20 μM, respectively. MTS reagent was added to the wells 96 h after the first (and sometimes the only) application of the peptide and the optical density at 492 nm was measured to determine the fraction of the surviving cells.
as §1, §3

[4] = tested on: primary culture of human dermal fibroblasts (DF); experiment: MTS cell viability assay, dermal fibroblasts; details: for Effect on proliferative activity at low dose (MTS): 5 μM single dose
Description: as §4, §5
(§6) As a next step, we set out to test the cytotoxic effect of these peptides on the normal cells.
as §3

[5] = tested on: human fibrosarcoma cell line HT-1080; assay type: cell-based; details: for Viability of HT-1080 cells (MTS): single 20 μM dose, different incubation times, Fig. 9
[6] = cited from earlier work
Description: Some interesting examples of peptides with presumed DO mechanism can also be found in the literature. […] The efficiency of this peptide was critically dependent on the two contiguous cysteines: mutating these residues to alanines or serines completely abrogated its activity, whereas other alterations such as sequence reversal preserved the activity.

[7] = tested on: lysozyme; details: oxidative refolding of lysozyme in vitro; cited from earlier work
Description: One instructive example of the redox-active peptides in Table 1 is the peptide labeled DIL (disulfide-isomerase-like). Originally, Woycechowsky and Raines have investigated the CGC peptide, where they measured the redox potential of −167 mV[40]. […] Recently, a longer peptide, RKCGCFF, has been introduced by Liu et al.[41]. The two basic residues, RK, have been added to the sequence with the intent to lower the thiol pKa values, while the two hydrophobic residues, FF, have been included to improve binding of the pept ...

[8] = tested on: human breast carcinoma and prostate cancer cells; details: cited from earlier work
[9] = tested on: human breast carcinoma cell line ZR-75-1
Description: as §4, §5, §1, §3

[10] = tested on: human fibrosarcoma cell line HT-1080; assay type: cell-based
Description: To evaluate the activity of DIL, CopYL and seven other peptides described in Table 1, we have conducted the dose-response measurements on the sensitive (HT-1080) and insensitive (ZR-75-1) cancer cell lines. The results are shown in Fig. 7A–D. For fibrosarcoma cells HT-1080, the best results are obtained using the peptide DOL with presumed disulfide oxidase properties. […] This is a much better performance than shown by GO-202 where the survival rate under identical conditions is 16%.
All experiments were conducted in duplicate or triplicate.

[11] = tested on: human endometrial mesenchymal stem cells (eMSC)
Description: as §1, §2, §3

[12] = tested on: primary culture of human dermal fibroblasts (DF)
Description: as §4, §5, §6, §3

Compound: N=C(N)NCCC[C@@H](N)C(=O)N[C@H](CCCNC(=N)N)C(=O)N[C@H](CCCNC(=N)N)C(=O)N[C@H](CCCNC(=N)N)C(=O)N[C@H](CCCNC(=N)N)C(=O)N[C@H](CCCNC(=N)N)C(=O)N[C@H](CCCNC(=N)N)C(=O)N[C@H](CCCNC(=N)N)C(=O)N[C@H](CCCNC(=N)N)C(=O)N[C@@H](CS)C(=O)N[C@@H](CCC(N)=O)C(=O)N[C@@H](CS)C(=O)N[C@@H](CCCNC(=N)N)C(=O)N[C@@H](CCCNC(=N)N)C(=O)N[C@@H](CCCCN)C(=O)N[C@@H](CC(N)=O)C(=O)O [GO-202] (H-[dR][dR][dR][dR][dR][dR][dR][dR][dR]CQCRRKN-OH; N-terminus and C-terminus assumed)
- Disulfide oxidoreductase activity in oxidative refolding of lysozyme ([1]; 25 μM-scale lysozyme diluted from 100 μM stock, RP-HPLC 280 nm): moderately effective disulfide oxidoreductase
- Reaction time Tox after which a significant fraction of lysozyme is fully oxidized natively folded ([1]; RP-HPLC): 15 min
- Reaction time Tox after which native form of lysozyme is dominant ([1]; RP-HPLC): 75 min
- Reaction time Tox after which no distinct peak from reduced lysozyme is observed ([1]; RP-HPLC, control without peptide: partially oxidized after ca. 75 mins): ≤ 1 min
- Cytotoxic activity compared with GO-202 (dose-response, MTS) [2]: highly sensitive
- Cytotoxic activity compared with GO-202 (dose-response, MTS) ([3]; OD measured 96 h after application, Fig. 7C,D): modestly active
- Effect on proliferative activity at low dose (MTS) ([4]; dermal fibroblasts, 96 h): small increases in proliferative activity
- Cell viability (MTS) ([4]; dermal fibroblasts, 4 × 5: four daily doses of 5 μM without exchanging growth medium, OD 492 nm 96 h after first application): significant impact
- Cytotoxic activity compared with GO-202 (dose-response, MTS) ([4]; normal cells: dermal fibroblasts, single dose, 96 h, Fig. 7E,F): highly sensitive
- Cell viability (MTS) ([5]; HT-1080, 4 × 5: four daily doses of 5 μM without exchanging growth medium, OD 492 nm 96 h after first application, duplicate or triplicate): significant impact
- Viability of HT-1080 cells (MTS) [5]: cell death occurs soon after the GO-202 treatment

Compound: GKAKCCK
- antimicrobial activity [6]: pronounced antimicrobial activity

Compound: RKCGCFF [peptide of Liu et al., mimic of disulfide isomerase]
- Efficiency as a mimic of disulfide isomerase [7]: increased efficiency

Compound: [R]9AQARRKNYGQLDIFP [CP-1]
- Cytotoxic properties [8]: no appreciable cytotoxic properties

Compound: [R]9CCCRRKN
- Cytotoxic activity compared with GO-202 (dose-response, MTS) [9]: significantly outperform GO-202
- Cytotoxic activity compared with GO-202 (dose-response, MTS) [10]: outperform the standard GO-202, although only by a small margin
- Effect on proliferative activity at low dose (MTS) ([4]; dermal fibroblasts, 96 h): small increases in proliferative activity
- Cytotoxic activity compared with GO-202 (dose-response, MTS) [11]: strongest effect
- Cytotoxic activity compared with GO-202 (dose-response, MTS) [12]: outperform GO-202

Compound: [R]9CQSRRKN
- Viability of HT-1080 cells (MTS) [5]: inactive

Compound: [R]9FFCPHCYQ [DOL]
- Cytotoxic activity compared with GO-202 (dose-response, MTS) [9]: best result
- Cytotoxic activity compared with GO-202 (dose-response, MTS) [10]: best results
- survival rate (MTS assay) ([10]; HT-1080, 96 h incubation with 20 μM peptide, single dose): essentially fully eliminated
- Effectiveness in killing cancer cells relative to GO-202 ([3]; 20 μM, MTS 96 h): three times more effective
- Cytotoxic activity compared with GO-202 (dose-response, MTS) [11]: outperform GO-202
- Cytotoxic activity compared with GO-202 (dose-response, MTS) [12]: strongest effect

Compound: [R]9GCGPCG [DRL, disulfide-reductase-like peptide derived from thioredoxin]
- Cytotoxic activity compared with GO-202 (dose-response, MTS) [9]: inactive
- Cytotoxic activity compared with GO-202 (dose-response, MTS) [10]: inactive

Compound: [R]9KCGCFF [DIL]
- Cytotoxic activity compared with GO-202 (dose-response, MTS) [9]: significantly outperform GO-202
- Cytotoxic activity compared with GO-202 (dose-response, MTS) [10]: second best result
- Effect on proliferative activity at low dose (MTS) ([4]; dermal fibroblasts, 96 h): small increases in proliferative activity
- Cytotoxic activity compared with GO-202 (dose-response, MTS) [11]: less cytotoxic than GO-202
- Cytotoxic activity compared with GO-202 (dose-response, MTS) [12]: less cytotoxic than GO-202

Compound: [R]9SQCRRKN
- Viability of HT-1080 cells (MTS) [5]: inactive

Compound: [R]9SQSRRKN [control: GO-202 with S-for-C substitution]
- Cytotoxic activity compared with GO-202 (dose-response, MTS) [10]: inefficient compared to GO-202
- Viability of HT-1080 cells (MTS) [5]: ineffective
